Reference: US11926826B2, “Twist signaling inhibitor compositions and methods of using the same” (City of Hope, priority 2016, dated 2024)

Columns and labels:
TWIST1 = TWIST1 knockdown after Lipofectamine 2000 transfection of siRNA in MDA-MB-435S cells (western blot); format: cell-based, human; conditions: unmodified vs passenger-strand modified si419
Method: Transient transfection of MDA-MB-435S GFP+ffluc was carried out using LIPOFECTAMINE® 2000 (Thermo Fisher Scientific, Waltham, MA) according to the manufacturer's instructions. LIPOFECTAMINE® 2000 transfection was used to confirm the functionality of the siRNA (si419 and si494) prior to testing their efficacy with MSNs. Transfection of siRNA with MSNs was carried out by incubating the MSNs with the siRNA overnight at 4° C. while rotating the tube constantly. The mixture consisted of 7 parts MSN (diluted to 500 ng/ul in sterile PBS) to 1 part siRNA (diluted to 10 uM). The final concentration for of MSNs and siRNA applied to cells was 17.5 ng/ul and 50 nM, respectively.
Western Blot. Following siRNA treatment described above, cells were lifted from tissue culture wells with 0.25% trypsin, pelleted, and lysed in RIPA buffer. Protein concentration was determined using a BCA Assay (Thermo Fisher Scientific). A total of 30 μg of protein per lane was run on 4% stacking and 12% resolving polyacrylamide gels. Following gel electrophoresis, protein was transferred to Immobilon-P PVDF membrane (Millipore, Billerica, MA) using a Trans-Blot SD Semi-Dry Transfer Cell (Bio-Rad, Hercules, CA). Membranes were then blocked with 5% dry milk dissolved in 1×PBS with 0.1% Tween-20. Antibodies were diluted in blocking buffer (1:250 for anti-TWIST1 and 1:2,500 for anti-Actin). […]

TWIST = TWIST knockdown after MSN delivery of siRNA in ovarian cancer cell lines; format: cell-based; conditions: A2780R and Ovcar8; loaded onto MSNs
Method: MSN design and delivery. Mesoporous silica nanoparticles (MSNs) were synthesized utilizing the sol-gel method as described previously. First, 250 mg 95% cetyltrimethylammonium bromide (CTAB) was dissolved in 120 ml of water with 875 μl 2M sodium hydroxide solution, at 80° C. Next, 1.2 ml of 98% tetraethylorthosilicate was added. After 15 min, 300 μl of 42% 3-(trihydroxysilyl) propyl methylphosphonate was added, and the mixture was stirred 2 hr. Particles were collected using centrifugation and washed with methanol. Acidic methanol was then used to remove any remaining CTAB surfactants. Zeta potential at 50 μg/mL was 43.75 mV [14]. All chemicals were obtained from Aldrich (St. Louis, MO). Particles were ˜120 nm in diameter, with 2.5 nm pores. Low molecular weight (1.8 kD branched polymer) polyethyleneimine (PEI) was electrostatically attached to the particle surface to provide a positive change to attract negatively charged siRNA [21]. To complex siRNA for in vitro experiments, 10 μl siRNA at 10 μM was mixed with 70 ul MSNs at 500 μg/ml and 20 μl water, and the mixture was incubated overnight at 4° C. on a roller. The following day, 100 μl of the MSN-siRNA complexes was added to each well of a 6-well plate containing 1900 μl normal medium.
Western Blotting. Following siRNA treatment, cells were pelleted and lysed in RIPA buffer. Protein concentration was determined by BCA assay (Thermo Fisher). Following SDS-PAGE, protein was transferred to Amersham PVDF membrane (Genesee Scientific) using a BioRad Trans-Blot SD semi-dry transfer unit. Blots were then blocked in milk for one hour at room temperature or overnight at 4° C. Incubation with primary antibody took place for one hour at room temperature or overnight at 4° C. Antibodies were diluted in 5% milk, with 0.1-0.2% Tween-20. Antibodies used were TWIST 2c1a (Santa Cruz Biotechnology, Dallas, TX) at 1:250-1:500 dilution, β-Actin, A1978 (Sigma Aldrich, St. Louis, MO) at 1:2500-1:5000 dilution; and Horseradish Peroxidase (HRP) conjugated anti-mouse secondary antibodies. […]

SUM 1315 cells = experiment: Wound healing assay, SUM 1315; format: cell-based, human; conditions: YTZ3-15 transfection; compared to siQ
Method: Wound Healing Assay. To examine direction cell migration in vitro wound healing assays were performed as described previously. In summary, SUM 1315 cells (parental, eGFP+luc, shScram, shTwistA, and shTwistB) were grown in the conditions described above (2.1) in 6-well tissue culture plates. Once cells reached 80% confluency, a sterile 200 μl pipette tip was used to scratch a line in the monolayer of cells. Images were taken immediately after the scratch and at several time points thereafter using a Nikon TE-2000S microscope and SPOT Advanced software (Diagnostic Instruments, Sterling Heights, MI). Care was taken to always capture images in the same location for each time point. Additionally, SUM 1315 cells were transfected with siQ, siTwistA, or siTwistB using YTZ3-15 at a 50 nM final concentration. Cells were incubated with YTZ3-15+siRNA for 24 hours at 37° C., 5% CO2, and 90% humidity in a tissue culture incubator; the plates were then scratched with the 200 μl pipette tip.

si419: anti-TWIST siRNA; passenger 5′-GGACAAGCUGAGCAAGAUU-3′ (SEQ ID No: 1), guide 5′-AAUCUUGCUCAGCUUGUCCUU-3′ (SEQ ID No: 2) (listed as RNA, chemistry not fully specified)
knockdown (efficiency, FIG. 6) (TWIST1): approximately 80%
TWIST knockdown (TWIST): robust TWIST knockdown lasting one week post transfection
directional migration (SUM 1315 cells): decreased directional migration
